Patent EP1507010B1, “Control of the gene expression in eukaryotic cells” (priority 1999, dated 2001)

Experiments:
[1] = test system: HA-VP16-EsaR fusion (pMON53005); assay: Transient GUS reporter assay in transfected carrot protoplasts with VP16-EsaR effector; assay type: cell-based, Erwinia sterwartii; conditions: 25 [i M] OOHL, 36 hrs
Procedure: Plasmids for transfection were isolated and purified using Megaprep plasmid DNA isolation kit (Qiagen). Carrot protoplasts for transfections were prepared from carrot cell suspension culture and transfected with purified DNA as described (Ulmasov et al., Plant Cell 7:1611-1623, 1995). Briefly, 10 ì g of the reporter plasmid and 5 ìg of the effector plasmid were incubated with 10^6 protoplasts for five minutes at the room temperature in the presence of polyethylene glycol-calcium solution. After diluting approximately 10-fold with the culture medium, the protoplasts were incubated in the dark for 36 hours either in the presence or absence of the inducer 3-oxohexanoyl-homoserine lactone (OHHL, racemic mixture of the L- and D-isomers, purchased from Sigma Chemical Co., St Louis, MO). After incubation, protoplasts were collected by low-speed centrifugation, lysed and the level of GUS activity was measured using fluorometric GUS assay (Jefferson et al., EMBO J. 6:3901-3907, 1987).
Ten µg of the reporter plasmid (pMON53031), and indicated amount of the 35S effector plasmid per reaction was used for transfection in triplicate.

[2] = test system: TraR (expressed from GAL1 galactose inducible promoter, pGAL415TraR); assay: β-galactosidase reporter assay (chemiluminescent) in yeast expressing TraR; assay type: cell-based, Agrobacterium tumefaciens; conditions: 50µM C8-HSL, 5 hrs of growth on galactose; strain YPH499, cl.5 and 6; minimal promoter with 3 copies of TraA8 element
[3] = biological target: T1, HA-VP16-TraR fusion (TraR from Agrobacterium strain A348 fused to VP16 activation domain; pMON53030) (UniProt P06492+P33905); assay: Transient GUS reporter assay in transfected carrot protoplasts with VP16-TraR effector; assay type: cell-based, Agrobacterium tumefaciens; design: + inducer (average of the GUS activities) / + inducer (GUS activity, average) / GUS activity, average (with AHL or analog at the stated concentration) / GUS activity, average (+ inducer) / GUS activity, average: unit not given here; conditions: for + inducer (GUS activity, average): 12.5 µM C8-AHL; for GUS activity, average: 25 µM of the AHL or analog; for + inducer (average of the GUS activities): 36 hrs
T1 construct: PCR fragments containing open reading frames are cloned into an expression construct; expressed in transfected cells; host or cells: carrot protoplasts from cell suspension culture, transient transfection
Source text: Carrot protoplasts were transfected with the TraA8 (4X)- GUS reporter construct with the 35S-VP16-TraR activator gene and tested for GUS induction by application of wild type AHL and the various AHL analogs described in Example 8. Table 8: Transient assays in carrot protoplasts of AHL analogs

[4] = test system: VP16-TraR fusion (pMON53077); assay: GUS activity in transgenic Arabidopsis plants carrying GUS reporter and 35S-VP16-TraR activator genes; assay type: in vivo, Agrobacterium tumefaciens; conditions: detached caulline leaves, 24 hours in MS medium with 100 µM HSL
Procedure: Transgenic Arabidopsis plants containing TraA8(3X)-GUS reporter and 35S-VP16-TraR activator genes (pMON53077) were analyzed for induction of GUS activity. […] GUS assays were conducted as described by Jefferson et al. (supra).
In addition, detached leaves incubated for 24 hours in MS medium with or without 100 µM HSL were visualized for induction of GUS activity after staining.

TraM = conditions: 12.5 µM C8-AHL; reporter TraA8(3X), cl.4 (60 µg) + TraM
Source text: Plasmids for transfection were isolated and purified using Megaprep plasmid DNA isolation kit (Qiagen).

3-oxooctanoyl-L-homoserine lactone [C8-HSL]
+ inducer (average of the GUS activities) ([1]; pMON53035 (lasB box 3X-GUS) + pMON53005 60 µg): 4.9 | + inducer (average of the GUS activities) ([1]; reporter pMON53031, pMON53005 60 µg): 764.1 | induction of β-gal activity in cell extracts [2]: strong induction | GUS activity, average ('- inducer') ([3]; 1 µM of the AHL or analog, reporter TraA8(4X)-GUS + 35S-VP16-TraR): 1263.2 | GUS activity, average (with AHL or analog at the stated concentration) ([3]; 5 µM of the AHL or analog, reporter TraA8(4X)-GUS + 35S-VP16-TraR): 3018.7 | + inducer (GUS activity, average) ([3]; reporter Tra box(3X), cl.5, second transfection): 1576.2 | + inducer (GUS activity, average) ([3]; reporter TraA1 (3X), cl.35, second transfection): 1560.4 | + inducer (GUS activity, average) ([3]; reporter TraA2(3X), cl.43, second transfection): 2057.1 | + inducer (GUS activity, average) ([3]; reporter TraA3(3X), cl.4, second transfection): 100.1 | + inducer (GUS activity, average) ([3]; reporter TraA4(3X), cl.23, second transfection): 109.6 | + inducer (GUS activity, average) ([3]; reporter TraA5(3X), cl.2, second transfection): 82.3 | + inducer (GUS activity, average) ([3]; reporter TraA6(3X), cl.21, second transfection): 3.2 | + inducer (GUS activity, average) ([3]; reporter TraA7(3X), cl.15, second transfection): 236.8 | + inducer (GUS activity, average) ([3]; reporter TraA8(3X), cl.4 (25µg) + TraR + CAT): 762.2 | + inducer (GUS activity, average) ([3]; reporter TraA8(3X), cl.4 (25µg) + TraR + TraM co-transfected): 11.8 | + inducer (GUS activity, average) ([3]; reporter TraA8(3X), cl.4 (25µg) + TraR + TraS co-transfected): 248.3 | + inducer (GUS activity, average) ([3]; reporter TraA8(3X), cl.4 (60 µg), effector printed as TraR): 1665.3 | + inducer (GUS activity, average) ([3]; reporter TraA8(3X), cl.4, second transfection): 1759.1 | + inducer (GUS activity, average) ([3]; reporter TraA8(4X), cl. 16 + HA-VP16-TraR): 1015.3 | + inducer (GUS activity, average) ([3]; reporter TraA10(3X), cl.17, second transfection): 641.1 | + inducer (GUS activity, average) ([3]; reporter TraA-1(3X), cl.14, second transfection): 26.7 | + inducer (GUS activity, average) ([3]; reporter tra box (6X), cl.7, first transfection): 987.4 | + inducer (GUS activity, average) ([3]; reporter traA1(3X), cl.35, first transfection): 1941.5 | + inducer (GUS activity, average) ([3]; reporter traA2(3X), cl.43, first transfection): 2281.6 | + inducer (GUS activity, average) ([3]; reporter traA3(3X), cl.4, first transfection): 116.5 | + inducer (GUS activity, average) ([3]; reporter traA4(3X), cl.23, first transfection): 122.8 | + inducer (GUS activity, average) ([3]; reporter traA5(3X), cl.2, first transfection): 20.5 | + inducer (GUS activity, average) ([3]; reporter traA6(3X), cl.21, first transfection): 64.6 | + inducer (GUS activity, average) ([3]; reporter traA7(3X), cl.15, first transfection): 234.8 | + inducer (GUS activity, average) ([3]; reporter traA8(3X), cl.4, first transfection): 888.0 | + inducer (GUS activity, average) ([3]; reporter traA9(3X), cl.8, first transfection): 63.7 | GUS activity, average (+ inducer) ([3]; 12.5 µM of the AHL or analog, reporter TraA8(4X)-GUS + 35S-VP16-TraR): 4142.8 | GUS activity, average ([3]; reporter TraA8(4X)-GUS + 35S-VP16-TraR): 7642.9 | GUS activity, average ([3]; reporter TraA8(4X)-GUS + 35S-VP16-TraR, listed as CB-HSL): 7523.9 | GUS activity, average (+ inducer) ([3]; 75 µM of the AHL or analog, reporter TraA8(4X)-GUS + 35S-VP16-TraR): 7975.7 | + inducer (average of the GUS activities) ([3]; 0.1 [i M] OOHL, reporter pMON53031, pMON53030 60 µg): 355.9 | + inducer (average of the GUS activities) ([3]; 0.5 [i M] OOHL, reporter pMON53031, pMON53030 60 µg): 698 | + inducer (average of the GUS activities) ([3]; 1 [i M] OOHL, reporter pMON53031, pMON53030 60 µg): 458.2 | + inducer (average of the GUS activities) ([3]; 2.5 [i M] OOHL, reporter pMON53031, pMON53030 60 µg): 1487.8 | + inducer (average of the GUS activities) ([3]; 5 [i M] OOHL, reporter pMON53031, pMON53030 60 µg): 1474.2 | + inducer (average of the GUS activities) ([3]; 12.5 [i M] OOHL, reporter pMON53031, pMON53030 60 µg): 1526.2 | + inducer (average of the GUS activities) ([3]; 25 [i M] OOHL, reporter pMON53031, pMON53030 30 µg + CAT): 215.7 | + inducer (average of the GUS activities) ([3]; 25 [i M] inducer (OOHL, or C6), reporter pMON53031, pMON53030 60 µg): 1393.2 | + inducer (average of the GUS activities) ([3]; 50 [i M] OOHL, reporter pMON53031, pMON53030 60 µg): 1595.5 | + inducer (average of the GUS activities) ([3]; 100 [i M] OOHL, reporter pMON53031 (traII box 3X-GUS) 10 µg, pMON53030 60 µg): 1446.4 | induction of GUS activity by histochemical GUS staining [4]: uniform induced activity | + inducer (GUS activity, average) (TraM): 98.0
